What was measured:
Assay type in all cases: functional
Conditions in all cases: route intraperitoneal
Mus musculus [1] = assay: Compound was tested for mortality in L1210 leukemia implanted BDF1 mice on day 0 after ip administration of 6.25 mg/kg/day on day 1-9 out of 6 mice
Mus musculus [2] = assay: Compound was tested for mortality in L1210 leukemia implanted BDF1 mice on day 0 after ip administration of 50 mg/kg/day on day 1-9 out of 6 mice
Mus musculus [3] = assay: Compound was tested for mortality in L1210 leukemia implanted BDF1 mice on day 0 after ip administration of 80 mg/kg/day on day 1 out of 5 mice

Measured: Mortality

NC(=O)c1ncn2c(=O)n(CCCl)nnc12 [MITOZOLOMIDE]
0: all assays above

From ChEMBL document CHEMBL1122784, “Antitumor imidazotetrazines. 1. Synthesis and chemistry of 8-carbamoyl-3-(2-chloroethyl)imidazo[5,1-d]-1,2,3,5-tetrazin-4(3 H)-one , a novel broad-spectrum antitumor agent” (J Med Chem, 1984)
